Data taken from patent US8580783B2, “[1,2,4]triazolo [1,5-c]pyrimidine derivatives as Hsp90 modulators” (Nerviano Medical Sciences S.r.l., priority 2010, dated 2013).

Tested on: Her2 protein levels in BT474 breast cancer cells
Assay: Her2 degradation assay (marker for Hsp90 inhibition)
Type: cell-based
Conditions: Homo sapiens, BT-474, 8 hours with compound, Her2 immunocytochemistry, ArrayScan vTi
Method: Its inhibition impairs the capacity to fold or stabilize its client proteins, leading to the proteosomal dependent degradation of these unfolded proteins.
Cellular Her2 levels were measured by immunocytochemistry, and quantified using an ArrayScan vTi instrument (Cellomics Thermo Scientific).
Studies were performed as follows: 5000 cells/well are seeded in 96 well plates (Perkin Elmer) in DMEM/5% FCS and incubated for 48 hours at 37° C., 5% CO2.
Medium is then replaced with fresh medium containing test compounds at the required concentration. Concentration curves are prepared in DMEM/10% FCS from compound stocks in DMSO, and final DMSO concentration is 0.1% (v/v). Duplicate wells for each concentration point are prepared, with a typical highest compound concentration of 30 μM. […] Non-specific binding sites are blocked by incubating wells for 1 hour in PBS containing 3% (w/v) BSA. […] At least 10 fields, corresponding to at least 900 cells, are read for each well.

- IC50: 6.78 µM
Structure (SMILES): Nc1nc2c3c(F)cccc3nc(Cc3ccc4c(c3)OCO4)n2n1 [5-(1,3-benzodioxol-5-ylmethyl)-10-fluoro[1,2,4]triazolo[1,5-c]quinazolin-2-amine]
